In the data set the test system is HeLaS3 cells. The experiment in a line: Radiosensitizing activity: cell survival rate (Cell Counting Kit-8, WST-8) of HeLaS3 cells after peptide and X-ray irradiation. Format: cell-based, human. Particulars: peptide 50 μM, X-ray dose 0 Gy, compared with 0 μM peptide. The method, then: Radiosensitizing activity of the radiosensitizing synthetic peptide (Sample 1) obtained in Example 1 was evaluated by measuring cell survival rates during culturing after having irradiated test cells supplied with the radiosensitizing synthetic peptide with radiation (here, X-rays).
Human carcinoma-derived cells (HeLaS3 cells) and cells derived from normal human tissue (CCD-1079Sk cells) were used for the test cells. […] Details of the evaluation test are as indicated below.
First, a cultured cell line derived from human cervical cancer in the form of HeLaS3 cells (ATCC™ CCL2.2) were prepared for use as test cells derived from a human tumor. […]
Next, at the point 48 hours had elapsed following X-ray irradiation, the viability of the test cells (the number of viable cells) was measured using a commercially available chromogenic assay kit (Cell Counting Kit-8, Dojindo Molecular Technologies, Inc.). Namely, the number of viable cells was measured by colorimetry by quantifying the amount of water-soluble formazan in the medium by measuring using absorption spectrophotometry (measuring wavelength: 450 nm, reference wavelength: 650 nm) based on the principle that the tetrazolium salt in the reagent is reduced by enzyme activity of viable cells resulting in the formation of water-soluble formazan. […]

Each structure is given as a SMILES string. Peptide text beside a SMILES is read from it.

For the compound `N=C(N)NCCC[C@H](NC(=O)[C@H](CCCNC(=N)N)NC(=O)[C@H](CO)NC(=O)[C@H](CCCCN)NC(=O)[C@H](CO)NC(=O)[C@H](CCCCN)NC(=O)[C@@H](N)CS)C(=O)N[C@@H](CO)C(=O)N[C@@H](CS)C(=O)O` [Sample 1, CKSKSRRSC] (H-CKSKSRRSC-OH), the “cell survivability, Test Group 1 in comparison with Test Group 2 (cytotoxicity attributable to the peptide)” value is “slightly lower”.
